In paper PMC9775004 (Biosensors, 2022):
Read-outs that look alike come from different tables or passages of the source.

Key:
[1] = system: FILLac10N0C; assay: FRET emission ratio (Venus to mTFP) response of purified FILLac10N0C; assay type: binding, Salmonella enterica serovar Typhimurium LT2
Description: The FILLac expression vectors were constructed based on the plasmid pETDuet-mTFP-Venus carrying mTFP gene and Venus gene. The original STlldR gene, its truncated variants or variants with artificial linkers were inserted between the mTFP gene and Venus gene by T5 exonuclease DNA assembly method (TEDA) to construct pETDuet-FILLac0N0C and its variants.
The purified FILLac and different compounds were diluted with 50 mM Tris-HCl buffer (pH 7.4), and then mixed at a volume ratio of 3:1 into a black 96-well microplate for a total detection volume of 100 μL. The final concentration of FILLac in the reaction mixture was 1 μM. The fluorescence intensities of FILLac at 485 nm (mTFP) and 528 nm (Venus) were detected by using an EnSight multifunctional microplate detector (PerkinElmer, USA) with excitation at 430 nm. […] The maximum ratio changes (ΔRmax) were calculated according to the following formula:(2) ΔRmax=−Rmax−Rmin/Rmin. […]

[2] = system: PaLldR; assay: Fluorescence-based thermal shift (FTS) assay with PaLldR; assay type: binding, Pseudomonas aeruginosa PAO1; settings: 1 mM compound, 10 μM LldR
Description: (§1) The gene STlldR encoding LldR of S. Typhimurium LT2 (STLldR) was amplified from genome of the strain, and then ligated into the plasmid pET28a to construct pET28a-STlldR. The recombinant plasmid pET28a-STlldR was transformed into E. coli BL21 (DE3) for STLldR expression. The expression strain was cultured in LB medium at 37 °C until an optical density at 600 nm (OD600) of 0.6 and induced with 1 mM isopropyl-β-D-thiogalactoside (IPTG) at 16 °C for 12 h. […] The purified STLldR was analyzed by 13% sodium dodecyl sulfate-polyacrylamide gel electrophoresis (SDS-PAGE). The protein concentration was determined using a Bradford protein assay kit (Sangon, Shanghai, China), and stored at –80 °C. […]
(§2) FTS assays were performed using a LightCycler 480 system (Roche, Indianapolis, IN, USA) with the filter set to excitation wavelength 465 nm and emission wavelength 580 nm for SYPRO orange. […] The melting temperature (Tm) of LldR was calculated from the negative first derivative value of the raw fluorescence data. Thermal shift temperature (ΔTm) was calculated by subtracting the Tm of the control from the Tm of LldR with the addition of different compounds. […]

[3] = system: PfLldR; assay: Fluorescence-based thermal shift (FTS) assay with PfLldR; assay type: binding, P. fluorescens A506; settings: 1 mM compound, 10 μM LldR
Description: as §1, §2

[4] = target: T1, EcLldR (Escherichia coli, UniProt P0ACL7); assay: Fluorescence-based thermal shift (FTS) assay with EcLldR; assay type: binding, E. coli MG1655; settings: 1 mM compound, 10 μM LldR
T1 construct: His tag (inferred from pET28a and HisTrap purification); made in house; host or cells: E. coli BL21 (DE3)
T1 sequence (P0ACL7 whole entry): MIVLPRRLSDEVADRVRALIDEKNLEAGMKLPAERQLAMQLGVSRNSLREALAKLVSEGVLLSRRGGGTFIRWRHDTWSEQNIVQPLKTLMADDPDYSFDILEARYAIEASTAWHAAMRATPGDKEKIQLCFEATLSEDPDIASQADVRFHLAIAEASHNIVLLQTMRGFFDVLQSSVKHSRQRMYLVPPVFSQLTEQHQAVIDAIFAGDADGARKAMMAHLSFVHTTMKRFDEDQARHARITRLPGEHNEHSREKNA
Description: as §1, §2

Row | Compound | fluorescence emission ratio change of FILLac10N0C (specificity analysis) ([1]; 50 μM compound) | also measured
1 | O=C(O)CCC(=O)C(=O)O [2-ketoglutarate] | did not change the emission ratio | 
2 | [Ca+2] [Ca^2+] | did not change the emission ratio | 
3 | O=C(O)CC[C@@H](O)C(=O)O [D-2-hydroxyglutarate] | did not change the emission ratio | 
4 | C[C@@H](O)C(=O)O [D-lactate] |  | change in Tm (ΔTm) of PaLldR [2]: significant changes in Tm; change in Tm (ΔTm) of PfLldR [3]: significant changes in Tm; change in Tm (ΔTm) of EcLldR [4]: significant changes in Tm
5 | O=C(O)C[C@@H](O)C(=O)O [D-malate] | did not change the emission ratio | 
6 | [K+] [K^+] |  | fluorescence emission ratio change of FILLac10N0C (specificity analysis) [1]: did not change the emission ratio
7 | O=C(O)CC[C@H](O)C(=O)O [L-2-hydroxyglutarate] | did not change the emission ratio | 
8 | N[C@@H](CCC(=O)O)C(=O)O [L-glutamate] | did not change the emission ratio | 
9 | C[C@H](O)C(=O)O [L-lactate] |  | change in Tm (ΔTm) of PaLldR [2]: significant changes in Tm; change in Tm (ΔTm) of PfLldR [3]: significant changes in Tm; change in Tm (ΔTm) of EcLldR [4]: significant changes in Tm
10 | O=C(O)C[C@H](O)C(=O)O [L-malate] | did not change the emission ratio | 
11 | [Mg+2] [Mg^2+] | did not change the emission ratio | 
12 | N [NH4^+] | did not change the emission ratio | 
13 | [Na+] [Na^+] | did not change the emission ratio | 
14 | CC(=O)O [acetate] | did not change the emission ratio | 
15 | O=C(O)/C=C(/CC(=O)O)C(=O)O [cis-aconitate] | did not change the emission ratio | 
16 | O=C(O)CC(O)(CC(=O)O)C(=O)O [citrate] | did not change the emission ratio | 
17 | O=C(CO)[C@@H](O)[C@H](O)[C@H](O)CO [fructose] | did not change the emission ratio | 
18 | O=C(O)/C=C/C(=O)O [fumarate] | did not change the emission ratio | 
19 | OC[C@H]1OC(O)[C@H](O)[C@@H](O)[C@@H]1O (stereo partly shown) [glucose] | did not change the emission ratio | 
20 | O=CC(=O)O [glyoxylate] | did not change the emission ratio | 
21 | O=C(O)CC(=O)C(=O)O [oxaloacetate] | did not change the emission ratio | 
22 | CC(=O)C(=O)O [pyruvate] | did not change the emission ratio | effect on detection of L-lactate by FILLac10N0C ([1]; 50 μM of the compound present in the L-lactate dose-response): not affected
23 | O=C(O)CCC(=O)O [succinate] |  | fluorescence emission ratio change of FILLac10N0C (specificity analysis) [1]: did not change the emission ratio
